From ChEMBL document CHEMBL1135014, “Synthesis, radiolabeling and preliminary biological evaluation of radiolabeled 5-methyl-6-nitroquipazine, a potential radioligand for the serotonin transporter” (Bioorg Med Chem Lett, 2002) come the findings set out here.

Test [1] concerns the target Sodium-dependent serotonin transporter (Rattus norvegicus, UniProt P31652). Nature of the test: Binding affinity of the radio labeled [3H]5-Methyl-6-nitroquipazine compound against Serotonin transporter in rat frontal cortex homogenates. In kind it is tissue-based.
Test [2] addresses Sodium-dependent serotonin transporter (Rattus norvegicus) (UniProt P31652). Kind of test: Enzyme kinetic constant, Bmax was evaluated against Serotonin transporter.

Molecules are shown by their SMILES.

Chain of Sodium-dependent serotonin transporter (P31652 whole entry): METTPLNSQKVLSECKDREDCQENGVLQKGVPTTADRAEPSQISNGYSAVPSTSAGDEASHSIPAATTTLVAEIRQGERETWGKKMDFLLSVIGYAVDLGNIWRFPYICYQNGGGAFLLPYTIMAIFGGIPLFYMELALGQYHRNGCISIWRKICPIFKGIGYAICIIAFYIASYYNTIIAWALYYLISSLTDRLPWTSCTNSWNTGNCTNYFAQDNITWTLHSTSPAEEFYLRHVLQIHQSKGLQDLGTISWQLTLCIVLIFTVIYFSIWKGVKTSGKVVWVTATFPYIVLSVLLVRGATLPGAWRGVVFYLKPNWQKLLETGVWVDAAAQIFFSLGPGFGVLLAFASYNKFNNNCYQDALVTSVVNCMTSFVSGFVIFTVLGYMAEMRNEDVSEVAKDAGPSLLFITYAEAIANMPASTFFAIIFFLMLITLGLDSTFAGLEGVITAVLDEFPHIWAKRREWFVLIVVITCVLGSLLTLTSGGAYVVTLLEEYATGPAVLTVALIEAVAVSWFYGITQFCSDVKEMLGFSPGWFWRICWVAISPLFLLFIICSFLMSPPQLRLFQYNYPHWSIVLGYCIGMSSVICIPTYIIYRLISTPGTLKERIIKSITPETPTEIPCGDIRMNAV
Chain of Sodium-dependent serotonin transporter (Rattus norvegicus) (P31652 whole entry): as above

With `Cc1c([N+](=O)[O-])ccc2nc(N3CCNCC3)ccc12`, the affinity in test [1], expressed as Kd, was 0.051 nM. This molecule also had a Bmax in test [2] of 1530 fmol/mg.
Regarding `O=[N+]([O-])c1ccc2nc(N3CCNCC3)ccc2c1` [6-NITROQUIPAZINE], in test [1], the Kd came out at 0.051 nM. Further, the Bmax in test [2] came out at 1530 fmol/mg.

As a reminder, the Kd is the constant that tells how readily two partners part at equilibrium.
